How the values were obtained:
[1] = system: sea urchins (Lytechinus pictus) sperms; test: Sea urchin sperm motility by video microscopy / CASA; assay type: cell-based
[2] = system: sea urchins (Lytechinus pictus) sperms; test: as above; assay type: cell-based; conditions: control = 100%
Description: Sperms originating from ripe sea urchins (Lytechinus pictus) showing genetic and functional similarity to human and animal sperms are used (R. Felix: Reproduction 129, 251-262 (2005).
(§1) Animals were washed by sequential immersion into 100 ml cold (approximately 5° C.) sperm storage buffer (SSB) pH 6.0. Used SSB composition: 50 mmol/L KCl, 5.0 mmol/L N-tris(hydroxymethyl)methyl-3-aminopropanesulphonic acid (TAPS), 425 mmol/L NaCl, 27 mmol/L MgCl2, 29 mmol/L MgSO4, 10 mmol/L CaCl2 and 2.4 mmol/L NaHCO3. Shedding of gametes was induced by intracoelomic injection of 2.0 ml cold 0.5 mol/L KCl through several sites on the peristomial membrane of the oral side. Sperm were collected by inverting male sea urchins over beakers containing approximately 100 ml cold MES sperm storage buffer (MSSB) pH 6.0. Used MSSB composition: 50 mmol/L KCl, 5.0 mM 2-[N-morpholino]ethanesulphonic acid (MES), 5.0 mmol/L TAPS, 425 mmol/L NaCl, 27 mmol/L MgCl2, 29 mmol/L MgSO4, 10 mmol/L CaCl2 and 2.4 mmol/L NaHCO3. A pool of sperm from several animals was made to minimize individual variations. Sperms were incubated in room temperature for 20 min. in 0.1-10 ml fractions diluted with 0.1-1000 ml activation buffer (ASW) pH 8.3. ASW composition: 50 mmol/L KCl, 5.0 mmol/L TAPS, 425 mmol/L NaCl, 27 mmol/L MgCl2, 29 mmol/L MgSO4, 10 mmol/L CaCl2, 2.4 mmol/L NaHCO3 and 1.0 mg/ml bovine serum albumin (BSA). The activation buffer contains the appropriate metal ions in a given concentration. […] Metal ions were used as Cl^− salts. Video microscopy was performed at room temperature (22° C.) using a Nikon Diaphot inverted microscope with 20× BM phase objective and 1× video adapter connected to a Dage CCD72 camera. […] The video signal was sent via a video time clock to a Panasonic VHS video recorder. Motility was recorded on multiple viewing fields for 15 sec per field until the recorded total sperm number reached 400. Video tapes were analyzed using CellTrack system. Measurements were carried out in triplicates. Sperm motility is expressed in %, where control values represent 100% (Bracho et al.: “A Method for Preparation, Storage and Activation of Large Populations of Immotile Sea Urchin Sperm”, BBRC 237, 59-62 (1997)).
(§2) Measurements are carried out using CASA (Computer Assisted Sperm Analysis) method within 12 hours following sperm collection or ejaculation.

[3] = system: human sperm from ejaculates of healthy donors; test: Human sperm motility by video microscopy / CASA; assay type: cell-based; conditions: control = 100%
Description: as §1
Sperms originating from ejaculates (2.0-5.0 ml) of healthy donors are diluted with 2.0-1000 ml cold MSSB buffer following liquidification and homogenized without modification of motility. From this point, sample handling and motility measurement is carried out as described in example#1.
as §2

sea urchin sperm = test: Sea urchin sperm motility time course: storage in high Ni^2+, then 100-fold dilution; assay type: cell-based, Lytechinus pictus; conditions: time point 0 = 100%
Description: as §1
a) Preparations of sea urchin sperm are produced as described in example 1. Motility measurements are carried out in predetermined time points as described in example#1 starting from time point 0. The activation buffer at time point 0 is supplemented with 20 mmol/L Ni^2+ as NiCl2. After 4 hours, sperm suspensions are diluted 100-fold with activation buffer, achieving 200 μmol/L final Ni^2+ concentration. Measurements of motility are carried out further. Sperm motility is expressed in %, where control values at time point 0 represent 100%.

| SMILES | motility (%) ([2]; 1 μmol/L metal ion) | motility (%) ([2]; 10 μmol/L metal ion) | motility (%) ([2]; 100 μmol/L metal ion) | motility (%) ([2]; 1 mmol/L metal ion) | motility (%) ([2]; 10 mmol/L metal ion) | motility (%) ([3]; 1 μmol/L metal ion) | motility (%) ([3]; 10 μmol/L metal ion) | motility (%) ([3]; 100 μmol/L metal ion) | motility (%) ([3]; 1 mmol/L metal ion) | motility (%) ([3]; 10 mmol/L metal ion) | also measured |
| --- | --- | --- | --- | --- | --- | --- | --- | --- | --- | --- | --- |
| [Cd+2] [Cd^2+] | – | – | – | – | – | – | – | – | – | – | motility (%) ([1]; 3.5 μmol/L Cd^2+, control printed as 64.0): 49.1% |
| [Zn+2] [Zn^2+] | – | – | – | – | – | – | – | – | – | – | motility (%) ([1]; 16 μmol/L Zn^2+, control printed as 64.3): 51.0% |
| [Co+2] [Co^2+] | 108.6 | 118.2 | 127.5 | 101.1 | 92.9 | 106.2 | 112.7 | 122.5 | 98.2 | 91.0 | – |
| [Ni+2] [Ni^2+] | 111.4 | 127.3 | 132.0 | 98.6 | 85.2 | 105.7 | 126.9 | 129.5 | 93.2 | 88.9 | motility (%) (sea urchin sperm; time 0:20, 20 mmol/L Ni^2+): 99.0%; motility (%) (sea urchin sperm; time 1:00, 20 mmol/L Ni^2+): 85.7%; motility (%) (sea urchin sperm; time 2:00, 20 mmol/L Ni^2+): 86.8%; motility (%) (sea urchin sperm; time 3:00, 20 mmol/L Ni^2+): 81.6%; motility (%) (sea urchin sperm; time 4:00, 20 mmol/L Ni^2+): 76.3%; motility (%) (sea urchin sperm; time 4:20, after 100-fold dilution at 4 hours to 200 μmol/L Ni^2+): 102.6%; motility (%) (sea urchin sperm; time 5:00, after 100-fold dilution at 4 hours to 200 μmol/L Ni^2+): 119.0%; motility (%) (sea urchin sperm; time 6:00, after 100-fold dilution at 4 hours to 200 μmol/L Ni^2+): 123.5%; motility (%) (sea urchin sperm; time 7:00, after 100-fold dilution at 4 hours to 200 μmol/L Ni^2+): 123.0%; motility (%) (sea urchin sperm; time 8:00, after 100-fold dilution at 4 hours to 200 μmol/L Ni^2+): 120.6% |
